In PubChem BioAssay (NCI):
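96-well plates; 48 h exposure; 5 concentrations. Endpoints by linear interpolation between flanking doses. Not reached: highest tested concentration assigned. The concentration for 50% growth inhibition is given as GI50. TGI marks complete inhibition of growth.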

Key:
Test in all cases: DTP human tumour cell line panel, 48 h
[1] = tested on: MALME-3M melanoma
[2] = tested on: COLO 205 colon
[3] = tested on: NCI-H226 lung
[4] = tested on: SF-268 CNS
[5] = tested on: OVCAR-8 ovarian
[6] = tested on: EKVX NSCLC
[7] = tested on: LOX IMVI melanoma
[8] = tested on: MOLT-4 leukemia
[9] = tested on: UACC-62 melanoma
[10] = tested on: RPMI-8226 leukemia

SMILES	TGI [1]	TGI [2]	TGI [3]	TGI [4]	TGI [5]	TGI [6]	TGI [7]	TGI [8]	TGI [9]	TGI [10]	GI50 [1]	GI50 [2]	GI50 [3]	GI50 [4]	GI50 [5]	GI50 [7]	GI50 [10]	GI50 [8]	GI50 [9]	GI50 [6]
C=C(CS(=O)(=O)c1ccccc1)C(=O)OCC	39.1 µM	38.9 µM	58.1 µM	40 µM	22.4 µM	39.9 µM	24.2 µM	17.8 µM	13.8 µM											
CC1(C)C(=O)CCC(=O)C(C)(C)C2=CC=C(O2)C(C)(C)C(=O)CCC(=O)C(C)(C)C2=CC=C1O2	> 100 µM	> 100 µM	> 100 µM	> 100 µM	> 100 µM	> 100 µM	> 100 µM	> 100 µM												
COc1ccc2oc(-c3cc4cc(OC)ccc4o3)cc2c1	> 100 µM	> 100 µM		> 100 µM	> 100 µM	> 100 µM	> 100 µM	> 100 µM	> 100 µM	> 100 µM										
Cc1ccc(-c2c3c(N)nc(-c4ccncc4)nc3nc3c2c(C)nn3-c2ccccc2)cc1	16.2 µM	> 37.5 µM	> 37.5 µM	> 37.5 µM	> 37.5 µM		14.5 µM	> 37.5 µM	> 37.5 µM	> 37.5 µM	7.73 µM	35.3 µM	14 µM	8.27 µM	3.63 µM	2.33 µM	18.6 µM	> 37.5 µM	13.8 µM	
COc1ccc(-c2nnc(Nc3nc(O)c(C4=c5cc(OC(F)(F)F)ccc5=NC4=O)s3)o2)cc1		> 100 µM	38.1 µM	> 100 µM	99.5 µM	71.7 µM	56.1 µM	49.3 µM	29.5 µM	37.2 µM		25.4 µM	17.4 µM	> 100 µM	22.7 µM	16.3 µM	14.2 µM	18.5 µM	15.1 µM	31.6 µM
O=C(O)CC1C(=O)OC2C3COC(=O)c4cc(O)c(O)c(O)c4-c4c(cc(O)c(O)c4O)C(=O)OC2C(OC(=O)c2cc(O)c(O)c4c2C1C(O)C(=O)O4)C(OC(=O)c1cc(O)c(O)c(O)c1)O3 (stereo not given)	> 100 µM	> 100 µM	> 100 µM	> 100 µM	67.2 µM	66.8 µM	31.5 µM	95 µM		> 100 µM										
COc1cc(C2CC(=O)c3c(C)nn(-c4nc5ccccc5[nH]4)c3C2)cc(OC)c1OC (stereo not given)		> 100 µM		> 100 µM					> 100 µM	> 100 µM		> 100 µM		8.01 µM			> 100 µM		14.6 µM	
O=C(O)c1ccccc1-c1ccccc1C(=O)Nc1ccc2c(c1)Cc1ccccc1-2	> 100 µM	31.2 µM	> 100 µM	> 100 µM	> 100 µM	54.8 µM	54.5 µM		32 µM	70.4 µM										
Cc1ccc2nc3sc(=O)sc3nc2c1		27.8 µM	27.9 µM	30.1 µM	28.6 µM	27.2 µM	28.2 µM	50.1 µM	32.5 µM	59.1 µM										
c1cc2ccc3cc2cc1CNCCOCCNCc1ccc2ccc(cc2c1)CNCCOCCNC3	> 100 µM	> 100 µM	> 100 µM	> 100 µM	> 100 µM	> 100 µM	> 100 µM	> 100 µM	> 100 µM		> 100 µM	> 100 µM	> 100 µM	> 100 µM	> 100 µM	> 100 µM		> 100 µM	> 100 µM	> 100 µM
CCCCCCCCCCCCNC(=O)[C@H]1CSC(c2cc(Br)cs2)N1 (stereo not given in full)	10.2 µM	16 µM	1.76 µM	1.42 µM	4.67 µM	1.77 µM	1.56 µM	1.76 µM		3.61 µM	3.68 µM	8.16 µM	0.895 µM	0.598 µM	1.58 µM	0.797 µM	1.38 µM	0.774 µM		0.918 µM
C[C@@H](Oc1cc(-c2cnn(C3CC4(CNC4)C3)c2)cnc1N)c1c(Cl)ccc(F)c1Cl	3.89 µM	3.3 µM	24.3 µM	18.2 µM	24.3 µM		6.79 µM	7.27 µM	13.8 µM	13 µM	1.53 µM	1.38 µM	6.81 µM	4.19 µM	10.4 µM	1.96 µM	3.22 µM	1.03 µM	3.64 µM	
CC1=C(C(=O)Nc2cccc(C(F)(F)F)c2)C(c2ccccc2F)C(C(=O)Nc2cccc(C(F)(F)F)c2)=C(C)N1	21.8 µM	20.5 µM	18.4 µM		28.2 µM	17.5 µM	18.3 µM	8.41 µM		10.1 µM										
O=C1c2ccccc2-c2c1c1c(O)cccc1n2CCCc1ccccc1		> 100 µM	50.9 µM	> 100 µM	> 100 µM	98.3 µM	> 100 µM	> 100 µM	> 100 µM	51.9 µM		17.8 µM	11.2 µM	88.5 µM	31.7 µM	43.9 µM	13.7 µM	30.4 µM	22.7 µM	10.3 µM
CN(C(=O)C12C3C4C1C1C2C3C41C(=O)N(C)C(C)(C)C)C(C)(C)C (stereo not given)	> 50 µM	> 50 µM		> 50 µM	> 50 µM	> 50 µM		> 50 µM	> 50 µM											
O=[N+]([O-])c1ccc(N/N=C/c2ccccc2O)nc1	> 100 µM	> 100 µM	> 100 µM	> 100 µM	51.2 µM	> 100 µM	> 100 µM		11.6 µM	> 100 µM	5.8 µM	0.544 µM	4.6 µM	1.26 µM	0.407 µM	0.92 µM	0.86 µM		2.61 µM	3.58 µM
COC(=O)CSc1n[nH]c(-c2ccccc2)n1	> 100 µM	> 100 µM	> 100 µM	> 100 µM	> 100 µM	> 100 µM		43.2 µM	> 100 µM	> 100 µM										
COc1cc(-c2ccccc2)c(OC)cc1CCl	> 100 µM	> 100 µM	> 100 µM	> 100 µM	> 100 µM	> 100 µM		> 100 µM	> 100 µM	> 100 µM										
